Measurements as given in patent US6362369B1, “Phthalic acid diamide derivatives fluorine-containing aniline compounds as starting material, agricultural and horticultural insecticides, and a method for application of the insecticides” (Nihon Nohyaku Co., Ltd., priority 1997, dated 2002).

How the values were obtained:
Type in all cases: in vivo
[1] = tested on: diamondback moth (Plutella xylostella); test: Insecticidal effect on diamondback moth (Test Example 1); settings: mortality judged according to the criterion shown in Test Example 1
Outline: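 Triplicate groups of 10 insects were scored: six days after immersion of oviposited Chinese cabbage seedlings and holding at 25 °C post air-drying, hatched larvae were counted. Mortality derived from these counts and insecticidal effect judged by a set criterion.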

[2] = tested on: rice leafroller (Cnaphalocrocis medinalis); test: Insecticidal effect on rice leafroller (Test Example 3); settings: 500 ppm, rice lamina dip, third-instar larvae, four days after inoculation, 25° C., humidity 70%
Outline: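 Insecticidal effect is judged by a predefined criterion from dead/alive counts four days after infesting air-dried lamina with third-instar larvae, kept on moistened filter paper at 25° C, 70% humidity.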

[3] = tested on: common cutworm (Spodoptera Litura); test: Insecticidal effect on common cutworm (Test Example 2); settings: 500 ppm, cabbage leaf dip, second-instar larvae, eight days after inoculation, 25° C.
Outline: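 Mortality was scored 8 days post-inoculation, using three groups of 10 second-instar larvae kept at 25 °C in closed 9 cm dishes on air-dried treated material. The insecticidal effect was graded from calculated mortality by a set criterion.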

| Compound | Insecticidal effect on diamondback moth (Test Example 1), judged grade [1] | Insecticidal effect on rice leafroller (Test Example 3), judged grade [2] | Insecticidal effect on common cutworm (Test Example 2), judged grade [3] |
| --- | --- | --- | --- |
| Cc1cc(OC(F)F)ccc1NC(=O)c1c(F)ccc(F)c1C(=O)NC(C)C [compound 581] | A (100) | A (100) | B (99-90) |
| CC(C)NC(=O)c1c(C(=O)Nc2ccc(I)cc2)cccc1[N+](=O)[O-] [compound 595] | A (100) | A (100) | A (100) |
| Cc1ccccc1NC(=O)c1cccc([N+](=O)[O-])c1C(=O)NC(C)C [compound 599] | A (100) | A (100) | D (79-50) |
| CC(C)NC(=O)c1c(C(=O)Nc2ccc(C(F)(F)F)cc2)cccc1[N+](=O)[O-] [compound 606] | A (100) | A (100) | D (79-50) |
| CC(C)NC(=O)c1c(C(=O)Nc2cccc(C(F)(F)F)c2)cccc1[N+](=O)[O-] [compound 607] | A (100) | A (100) | A (100) |
| CC(C)NC(=O)c1c(C(=O)Nc2ccc(C(F)(F)C(F)(F)C(F)(F)F)cc2)cccc1[N+](=O)[O-] [compound 609] | A (100) | A (100) | B (99-90) |
| CC(C)NC(=O)c1c(C(=O)Nc2ccc(C(F)(C(F)(F)F)C(F)(F)F)cc2)cccc1[N+](=O)[O-] [compound 610] | A (100) | C (89-80) | A (100) |
| CC(C)NC(=O)c1c(C(=O)Nc2ccc(OC(F)F)cc2)cccc1[N+](=O)[O-] [compound 617] | A (100) | A (100) | A (100) |
| CC(C)NC(=O)c1c(C(=O)Nc2ccc(OC(F)(F)F)cc2)cccc1[N+](=O)[O-] [compound 618] | A (100) | A (100) | A (100) |
| CC(C)NC(=O)c1c(C(=O)Nc2ccc(OC(F)(F)C(F)OC(F)(F)C(F)(F)C(F)(F)F)cc2)cccc1[N+](=O)[O-] (stereo not drawn) [compound 619] | A (100) | A (100) | A (100) |
| CC(C)NC(=O)c1c(C(=O)Nc2ccc(SC(F)F)cc2)cccc1[N+](=O)[O-] [compound 625] | A (100) | D (79-50) | D (79-50) |
| CC(C)NC(=O)c1c(C(=O)Nc2ccc(SC(F)(F)C(F)(F)Br)cc2)cccc1[N+](=O)[O-] [compound 628] | A (100) | A (100) | B (99-90) |
| CC(C)NC(=O)c1c(C(=O)Nc2ccc(Cl)c(Cl)c2)cccc1[N+](=O)[O-] [compound 636] | A (100) | A (100) | D (79-50) |
| Cc1ccc(NC(=O)c2cccc([N+](=O)[O-])c2C(=O)NC(C)C)c(C)c1 [compound 648] | A (100) | A (100) | D (79-50) |
